IC90 data for 23 compounds are collected here from patent publication US20230011869A1 (Hoffmann-La Roche Inc., priority 2018, published 2023).

Where a name gives a salt, the structure may show the parent alone. Read-outs that look alike come from different tables or passages of the source.

The assay concerns Acinetobacter baumannii ATCC17978. The assay is described as follows: Antimicrobial susceptibility testing: 90% growth inhibitory concentration (IC90) determination, Iso-Sensitest broth. It is filed as cell-based. The gist of the method: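 A. baumannii ATCC17978 grown in Iso-Sensitest broth across 10 compound concentrations at 35±2 °C.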
[1] abbreviates: Acinetobacter baumannii, ATCC17978, 16 h, read-out: ATCC17978 IC90, 90% growth inhibitory concentration, Acinetobacter baumannii ATCC17978, Iso-Sensitest broth, OD 600 nm over 16 h.
[2] abbreviates: 90% growth inhibitory concentration, Acinetobacter baumannii ATCC17978, Iso-Sensitest broth, OD 600 nm over 16 h, read-out: ATCC17978 IC90.

In the case of `Cc1cc(Nc2nccn3c(-c4ccc(OC(F)F)cc4)cnc23)ccc1C(=O)N1CCN(C(=O)C2(C#N)CCNCC2)CC1` [Example 517, 4-[4-[4-[[3-[4-(difluoromethoxy)phenyl]imi-dazo[1,2-a]pyrazin-8-yl]amino]-2-methylbenzoyl]piperazine-1-carbonyl]piperidine-4-carbonitrile; hydrochloride], the IC90 under setting [1] was 660 nM.
For the compound `Cc1cc(Nc2nccn3c(-c4ccc(OC(F)F)cc4)cnc23)ccc1C(=O)N1CCN(C(=O)N2CCNCC2)CC1` [Example 518, [4-[[3-[4-(difluoromethoxy)phenyl]imi-dazo[1,2-a]pyrazin-8-yl]amino]-2-methylphenyl]-[4-(piperazine-1-carbonyl)piperazin-1-yl]methanone; hydrochloride], under setting [1], the IC90 was 170 nM.
On to `Cc1cc(Nc2nccn3c(-c4ccc(OC(F)F)cc4)cnc23)ccc1C(=O)N1CCN(C(=O)CCN)CC1` [Example 519, 3-amino-1-[4-[4-[[3-[4-(difluoromethoxy)phenyl]imi-dazo[1,2-a]pyrazin-8-yl]amino]-2-methylbenzoyl]piperazin-1-yl]propan-1-one; hydrochloride], for which, under setting [1], the IC90 was determined as 410 nM.
For the compound `Cc1cc(Nc2nccn3c(-c4ccc(OC(F)F)cc4)cnc23)ccc1C(=O)N1CCN(C(=O)NCCN(C)C)CC1` [Example 520, 4-[4-[[3-[4-(difluoromethoxy)phenyl]imi-dazo[1,2-a]pyrazin-8-yl]amino]-2-methylbenzoyl]-N-[2-(dimethylamino)ethyl]pipera-zine-1-carboxamide], the IC90 under setting [1] was 310 nM.
Consider `Cc1cc(Nc2nccn3c(-c4ccc(OC(F)F)cc4)cnc23)ccc1C(=O)N1CCN(C(=O)[C@H]2CCN2)CC1` [Example 521, [4-[(2R)-azetidine-2-carbonyl]piperazin-1-yl]-[4-[[3-[4-(difluoromethoxy)phenyl]imi-dazo[1,2-a]pyrazin-8-yl]amino]-2-methylphenyl]methanone; hy-drochloride], for which the IC90 under setting [1] stood at 370 nM.
Consider `COc1ccc(-c2cnc3c(Nc4ccc(C(=O)N5CCN(C(=O)[C@H]6CCN6)CC5)c(C)c4)nccn23)cc1F` [Example 522, [4-[(2R)-azetidine-2-carbonyl]piperazin-1-yl]-[4-[[3-(3-fluoro-4-methoxyphenyl)imidazo[1,2-a]pyrazin-8-yl]amino]-2-methylphenyl]methanone; hy-drochloride], for which the IC90 under setting [2] was determined as 370 nM.
In the case of `Cc1cc(Nc2nccn3c(-c4ccc(OC(F)F)cc4)cnc23)ccc1C(=O)N1CCN(C(=O)C2CCNCC2O)CC1` (centres unmarked) [Example 523, [4-[[3-[4-(difluoromethoxy)phenyl]imi-dazo[1,2-a]pyrazin-8-yl]amino]-2-methylphenyl]-[4-(3-hydroxypiperidine-4-carbonyl)piperazin-1-yl]methanone; hydrochloride], under setting [1], the IC90 came to 390 nM.
The same measure, in the same setting: the result for `CNCCNC(=O)N1CCN(C(=O)c2ccc(Nc3nccn4c(-c5ccc(OC(F)F)cc5)cnc34)cc2C)CC1` [Example 524, 4-[4-[[3-[4-(difluoromethoxy)phenyl]imi-dazo[1,2-a]pyrazin-8-yl]amino]-2-methylbenzoyl]-N-[2-(methylamino)eth-yl]piperazine-1-carboxamide; hydrochloride] reads 470 nM; that for `Cc1cc(Nc2nccn3c(-c4ccc(OC(F)F)cc4)cnc23)ccc1C(=O)N1CCN(C(=O)[C@@H](N)CCC(N)=O)CC1` [Example 525, (4S)-4-amino-5-[4-[4-[[3-[4-(difluoromethoxy)phenyl]imi-dazo[1,2-a]pyrazin-8-yl]amino]-2-methylbenzoyl]piperazin-1-yl]-5-oxopentanamide; hydrochlo-ride], 510 nM.
The same measure, in the same setting: the result for `Cc1cc(Nc2nccn3c(-c4ccc(OC(F)F)cc4)cnc23)ccc1C(=O)N1CCN(C(=O)[C@@H](N)CO)CC1` [Example 526, (2S)-2-amino-1-[4-[4-[[3-[4-(difluoromethoxy)phenyl]imi-dazo[1,2-a]pyrazin-8-yl]amino]-2-methylbenzoyl]piperazin-1-yl]-3-hydroxypropan-1-one; hydrochloride] reads 560 nM; that for `Cc1cc(Nc2nccn3c(-c4ccc(OC(F)F)cc4)cnc23)ccc1C(=O)N1CCN(C(=O)[C@@H](N)[C@@H](C)O)CC1` [Example 527, (2S,3R)-2-amino-1-[4-[4-[[3-[4-(difluoromethoxy)phenyl]imi-dazo[1,2-a]pyrazin-8-yl]amino]-2-methylbenzoyl]piperazin-1-yl]-3-hydroxybutan-1-one; hydrochloride], 600 nM.
For the compound `Cc1cc(Nc2nccn3c(-c4ccc(OC(F)F)cc4)cnc23)ccc1C(=O)N1CCN(C(=O)[C@@H](N)CC(N)=O)CC1` [Example 528, (3S)-3-amino-4-[4-[4-[[3-[4-(difluoromethoxy)phenyl]imi-dazo[1,2-a]pyrazin-8-yl]amino]-2-methylbenzoyl]piperazin-1-yl]-4-oxobutanamide; hydrochloride], the IC90 under setting [1] was 610 nM.
Consider `Cc1cc(Nc2nccn3c(-c4ccc(OC(F)F)cc4)cnc23)ccc1C(=O)N1CCN(C(=O)[C@H]2C[C@H](O)CN2)CC1` [Example 529, [4-[[3-[4-(difluoromethoxy)phenyl]imi-dazo[1,2-a]pyrazin-8-yl]amino]-2-methylphenyl]-[4-[(2R,4S)-4-hydroxypyrrolidine-2-carbonyl]piperazin-1-yl]methanone; hydrochloride], for which, under setting [1], the IC90 is 690 nM.
For the compound `COc1ccc(-c2cnc3c(Nc4ccc(C(=O)N5CCN(C(=O)[C@H](CCN)NC(=O)CC[C@H](N)C(=O)O)CC5)c(C)c4)nccn23)c(F)c1F` [Example 532, (2S)-2-amino-5-[[(2S)-4-amino-1-[4-[4-[[3-(2,3-difluoro-4-methoxyphenyl)imidazo[1,2-a]pyrazin-8-yl]amino]-2-methylbenzoyl]piperazin-1-yl]-1-oxobutan-2-yl]amino]-5-oxopentanoic acid; hydrochloride], the IC90 under setting [1] was 1200 nM.
Still for that read-out and setting: the result for `COc1ccc(-c2cnc3c(Nc4ccc(C(=O)N5CCN(C(=O)[C@H](CCCN)NC(=O)CC[C@H](N)C(=O)O)CC5)c(C)c4)nccn23)c(F)c1F` [Example 533, (2S)-2-amino-5-[[(2S)-5-amino-1-[4-[4-[[3-(2,3-difluoro-4-methoxyphenyl)imidazo[1,2-a]pyrazin-8-yl]amino]-2-methylbenzoyl]piperazin-1-yl]-1-oxopentan-2-yl]amino]-5-oxopentanoic acid; hydrochloride] reads 1500 nM; that for `COc1ccc(-c2cnc3c(Nc4ccc(C(=O)N5CCN(C(=O)[C@H](CCCCN)NC(=O)[C@@H](N)CCC(=O)O)CC5)c(C)c4)nccn23)c(F)c1F` [Example 537, (4S)-4-amino-5-[[(2S)-6-amino-1-[4-[4-[[3-(2,3-difluoro-4-methoxyphenyl)imidazo[1,2-a]pyrazin-8-yl]amino]-2-methylbenzoyl]piperazin-1-yl]-1-oxohexan-2-yl]amino]-5-oxopentanoic acid; hydrochloride], 4400 nM.
On to `Cc1cc(Nc2nccn3c(-c4ccc(OCC#N)c(F)c4Cl)cnc23)ccc1C(=O)N1CCC(C(=O)N2CCN[C@@H](CO)C2)CC1` [Example 539, 2-[3-chloro-2-fluoro-4-[8-[4-[4-[(3R)-3-(hydroxymethyl)piperazine-1-carbonyl]piperidine-1-carbonyl]-3-methylanilino]imidazo[1,2-a]pyrazin-3-yl]phenoxy]acetonitrile; for-mic acid], for which, under setting [2], the IC90 turned out to be 88 nM.
As to `CCc1cc(Nc2nccn3c(-c4ccc(OCC#N)c(F)c4F)cnc23)ccc1C(=O)N1CCC(C(=O)N2CCN[C@@H](CO)C2)CC1` [Example 540, 2-[4-[8-[3-ethyl-4-[4-[(3R)-3-(hydroxymethyl)piperazine-1-carbonyl]piperidine-1-carbonyl]anilino]imidazo[1,2-a]pyrazin-3-yl]-2,3-difluorophenoxy]acetonitrile; 2,2,2-trifluoroacetic acid], the IC90 under setting [1] is 90 nM.
`CCc1cc(Nc2nccn3c(-c4ccc(OCC#N)c(F)c4F)cnc23)ccc1C(=O)N1CCC(C(=O)N2CCN[C@H](CO)C2)CC1` [Example 541, 2-[4-[8-[3-ethyl-4-[4-[(3S)-3-(hydroxymethyl)piperazine-1-carbonyl]piperidine-1-carbonyl]anilino]imidazo[1,2-a]pyrazin-3-yl]-2,3-difluorophenoxy]acetonitrile; 2,2,2-trifluoroacetic acid]: the IC90 under setting [1] came out at 96 nM.
`Cc1cc(Nc2nccn3c(-c4ccc(OCC#N)c(F)c4F)cnc23)ccc1C(=O)N1CCC(C(=O)N2CCN[C@H](CO)C2)CC1` [Example 542, 2-[2,3-difluoro-4-[8-[4-[4-[(3S)-3-(hydroxymethyl)piperazine-1-carbonyl]piperidine-1-carbonyl]-3-methylanilino]imidazo[1,2-a]pyrazin-3-yl]phenoxy]acetonitrile; for-mic acid]: under setting [2], the IC90 came out at 98 nM.
As for `Cc1cc(Nc2nccn3c(-c4ccc(OCC#N)c(F)c4F)cnc23)ccc1C(=O)N1CCC(C(=O)N2CCN[C@@H](CO)C2)CC1` [Example 543, 2-[2,3-difluoro-4-[8-[4-[4-[(3R)-3-(hydroxymethyl)piperazine-1-carbonyl]piperidine-1-carbonyl]-3-methylanilino]imidazo[1,2-a]pyrazin-3-yl]phenoxy]acetonitrile; for-mic acid], the IC90 under setting [2] came to 99 nM.
As for `COc1ccc(-c2cnc3c(Nc4ccc(C(=O)N5CCC(C(=O)N6CCN[C@@H](CO)C6)CC5)c(C)c4)nccn23)c(F)c1F` [Example 544, [4-[[3-(2,3-difluoro-4-methoxyphenyl)imidazo[1,2-a]pyrazin-8-yl]amino]-2-methylphenyl]-[4-[(3R)-3-(hydroxymethyl)piperazine-1-carbonyl]piperidin-1-yl]methanone; formic acid], the IC90 under setting [1] was 100 nM.
In the case of `Cc1cc(Nc2nccn3c(-c4ccc(OC(F)F)cc4)cnc23)ccc1C(=O)N1CCC(C(=O)NC[C@@H]2CNC(=O)O2)CC1` [Example 548, (R)-1-(4-((3-(4-(difluoromethoxy)phenyl)imidazo [1,2-a]pyrazin-8-yl)amino)-2-methylbenzoyl)-N-((2-oxooxazolidin-5-yl)methyl)piperidine-4-carboxamide], the IC90 under setting [1] was 203 nM.
